Here are results for 12 molecules from paper PMC6624652, “Compound Discovery and Structure-Activity Relationship Study of Neoantimycins Against Drug-Resistant Cancer Cells” (Frontiers in Chemistry, 2019).

SMILES strings stand for the structures. Like-named read-outs stand apart in the source and are kept apart here. Where only a bound is given, the exact number is not on record here.

The test system of data set [1] is GRP78. Also on record: method as in Izumikawa et al., 2007. The note with it: ref Izumikawa et al., 2007; cited from earlier work.
Data set [2] concerns cisplatin-resistant human gastric cancer cell line SGC7901/DDP. In words: WST-8 (CCK-8) in vitro cytotoxicity test, SGC7901/DDP. The following applies: read-out: IC50, SGC7901/DDP. The data set is classed as cell-based. The protocol: (§1) A WST-8 colorimetric assay (Cell Counting Kit-8, Dojindo) was used to determine the cytotoxicity of the obtained compounds against four human cancer cell lines (human gastric cancer cell line SGC7901, cisplatin-resistant human gastric cancer cell line SGC7901/DDP, human colon cancer cell line HCT-8, and taxol-resistant human colon cancer cell line HCT-8/T) and noncancerous NCM460 colon cell line. Each cell line (100 μL, 5 × 10^4 cells/mL) was inoculated into standard 96-well, flat-bottom microplates, and incubated with DMEM (for HCT-8 and NCM460) or RPMI-1640 (for HCT-8/T, SGC7901, and SGC7901/DDP) medium for 24 h at 37°C in a humidified atmosphere containing 5% CO2. The attached cells were then incubated with serially diluted NATs (1-8). After continuous exposure to the compounds for 72 h, 10 μL CCK-8 solution was added. After 3 h of incubation at 37°C (5% CO2), the absorbance was measured at 450 nm using a microtiter plate reader (SpectraMax 190, Molecular Devices). Cisplatin and taxol (purity ≥ 98% Sigma, USA) were used as positive controls. All studies were performed in triplicate and the IC50 values were calculated using Prism software.
For orientation: Tetrazolium assays rely on reduction of a dye to a coloured formazan, in cell work by metabolically active cells.

Data set [3] has as its system HT-29 cell line. Also on record: method as in Li et al., 2013. The note with it: ref Li et al., 2013; cited from earlier work.
The test system of data set [4] is human colon cancer cell line HCT-8. As to the kind of experiment: WST-8 (CCK-8) in vitro cytotoxicity test, HCT-8. The following applies: read-out: IC50, HCT-8. Format: cell-based. How it is done:
as §1

Data set [5] deals with human gastric cancer cell line SGC7901. As to the kind of experiment: WST-8 (CCK-8) in vitro cytotoxicity test, SGC7901. The data set is classed as cell-based. The following applies: read-out: IC50, SGC7901. How it is done: as §1
Data set [6] has as its system taxol-resistant human colon cancer cell line HCT-8/T. In words: WST-8 (CCK-8) in vitro cytotoxicity test, HCT-8/T. Format: cell-based. The following applies: read-out: IC50, HCT-8/T. How it is done: as §1
The test system of data set [7] is noncancerous NCM460 colon cell line. As to the kind of experiment: WST-8 (CCK-8) in vitro cytotoxicity test, NCM460. The following applies: Homo sapiens, read-out: IC50, NCM460. The data set is classed as cell-based. The protocol:
as §1

For data set [8], the system named is SGC7901, SGC7901/DDP, HCT-8 and HCT-8/T cell lines. As to the kind of experiment: Cytotoxicity summarised over all four cancer cell lines. The data set is classed as cell-based, human. The note with it: for IC50: Homo sapiens, read-out: anti-proliferative activity (IC50 span) against all four cell lines; for fold better anti-proliferative activity in drug-resistant cell lines than in sensitive ones: span over compounds 3, 4, 7, 8; for fold higher activity than corresponding oxidized forms (3 and 4): in vitro, span over four cell lines. How it is done:
as §1

The subject of data set [9] is KB cells. Also on record: method as in Takahashi et al., 2001. The note with it: ref Takahashi et al., 2001; cited from earlier work.
Data set [10] concerns K562 cells. Also noted: method as in Takahashi et al., 2001. The note with it: ref Takahashi et al., 2001; cited from earlier work.
Data set [11] relates to HCT-8 cells. As to the kind of experiment: Apoptosis analysis by flow cytometry (Annexin V-FITC/PI). Format: cell-based, human. The following applies: NAT-A 0.5 μM, 72 h, untreated 7.2 ± 1.1%. The protocol:
An Annexin V-FITC/PI Apoptosis Detection kit I (BD Pharmingen, San Diego, CA, USA) was adopted to examine the cell apoptosis according to the manufacturer's instructions. HCT-8 cells were cultured on a six-well plate (3 × 10^5 cells/well) and allowed to attach for 24 h before treated with NAT-A (0 and 0.5 μM) for 72 h. Then cells were harvested, washed with PBS and resuspended in 1 × binding buffer. Cell suspension (100 μL) was incubated with 5 μL FITC Annexin-V and 5 μL propidium iodide (PI) for 15 min in the dark. Following the incubation, 400 μL 1 × binding buffer was added into each sample before analysis using flow cytometry (Thermo Fisher Scientific, Eugene, Oregon, USA). The lower left section of fluorocytogram (Annexin V-, PI-) represents the normal cells, lower right section of fluorocytogram (Annexin V+, PI-) represents early apoptosis cells, and upper right section of fluorocytogram (Annexin V+, PI+) represents late apoptosis cells.
(In general: Flow cytometry measures light scatter and fluorescence of single cells or particles in a stream.)

In data set [12] the test system is HCT-8 cells. As to the kind of experiment: Cell morphology, DAPI staining. Format: cell-based, human. The following applies: 72 h. The protocol:
HCT-8 cells were seeded in 12-well plates at a density of 1 × 10^5 cells per well. After overnight adherence, they were exposed to the indicated concentration of NAT-A for 72 h. After that, the cells were washed with PBS and fixed 4% paraformaldehyde for 30 min at room temperature. After washing with PBS, the cells were stained with DAPI (100 ng/mL) for 15 min in the dark and photographed using a fluorescence microscope (Nikon, Japan).

Setting [13] is: 72 h exposure, CCK-8, mean ± SD, n = 3.
Setting [14] is: Homo sapiens, HCT-8, 72 h exposure, CCK-8, mean ± SD, n = 3.
[15] abbreviates: Homo sapiens, HCT-8, taxol-resistant, 72 h exposure, CCK-8, mean ± SD, n = 3.

For `CC[C@H](C)[C@@H]1OC(=O)C(C)(C)[C@@H](O)[C@@H](Cc2ccccc2)OC(=O)[C@H](C)OC(=O)[C@@H](NC(=O)c2cccc(N)c2O)[C@H](C)OC1=O` [JBIR-05], in data set [1], the “expression of GRP78” value is recorded as “inhibited the expression of GRP78”.
For the molecule `CC[C@H](C)[C@@H]1OC(=O)C(C)(C)[C@@H](O)[C@@H](Cc2ccccc2)OC(=O)[C@H](C(C)C)OC(=O)[C@@H](NC(=O)c2cccc(N)c2O)[C@@H](C)OC1=O` [Compound 5, Neoantimycin D], the IC50 was above 20000 nM in data set [2] (Homo sapiens, SGC-7901, 72 h); above 20000 nM in [4] (Homo sapiens, HCT-8, 72 h); 10200 nM in data set [5] (Homo sapiens, SGC-7901, 72 h); above 20000 nM in [6] (Homo sapiens, HCT-8, 72 h). Besides, the “antiproliferative activity against HT-29 cell line” value (from here on “antiproliferative activity”) in [3] was “hardly had any significant antiproliferative activity”. Further, the “cytotoxic activity (cell line not named at b4)” value in data set [3] is on record as “did not show any cytotoxic activity”.
Consider `CC(C)[C@@H]1OC(=O)[C@@H](NC(=O)c2cccc(N)c2O)[C@@H](C)OC(=O)[C@H](C(C)C)OC(=O)C(C)(C)[C@@H](O)[C@@H](Cc2ccccc2)OC1=O` [Compound 6, Neoantimycin E], for which the IC50 in data set [2] (Homo sapiens, SGC-7901, 72 h) is above 20000 nM; in data set [4] (Homo sapiens, HCT-8, 72 h), 13100 nM; in data set [5] (Homo sapiens, SGC-7901, 72 h), 1770 nM; in data set [6] (Homo sapiens, HCT-8, 72 h), above 20000 nM. Further, in data set [3], the “antiproliferative activity” value was “hardly had any significant antiproliferative activity”.
Take `CC(C)[C@@H]1OC(=O)[C@@H](NC(=O)c2cccc(N)c2O)[C@@H](C)OC(=O)[C@H](C(C)C)OC(=O)C(C)(C)C(=O)[C@@H](Cc2ccccc2)OC1=O` [Compound 2, Neoantimycin K]: the IC50 in data set [2] (Homo sapiens, SGC-7901, 72 h) is above 20000 nM; in data set [4] (Homo sapiens, HCT-8, 72 h) it was above 20000 nM; in [5] (Homo sapiens, SGC-7901, 72 h), above 20000 nM; in [6] (Homo sapiens, HCT-8, 72 h), above 20000 nM.
`CC(C)[C@@H]1OC(=O)[C@@H](NC(=O)c2cccc(NC=O)c2O)[C@@H](C)OC(=O)[C@H](C(C)C)OC(=O)C(C)(C)C(=O)[C@@H](Cc2ccccc2)OC1=O` [Compound 4, Neoantimycin I]: the IC50 in data set [7] (NCM460, 72 h) is above 50000 nM; in data set [2] (Homo sapiens, SGC-7901, 72 h) it was 15.7 ± 1.6 nM; in [4] (Homo sapiens, HCT-8, 72 h) it was 233 ± 20.1 nM; in data set [8], 1.5 to 523 nM; in data set [5] (Homo sapiens, SGC-7901, 72 h) it was 179 ± 18.3 nM; in data set [6] (Homo sapiens, HCT-8, 72 h), 32.6 ± 4.2 nM. In addition, the “fold better anti-proliferative activity in drug-resistant cell lines than in sensitive ones” value (shortened to “fold better anti-proliferative activity”) in data set [8] is reported as 5.2~33.5 fold.
Take `CC[C@H](C)[C@@H]1OC(=O)C(C)(C)C(=O)[C@@H](Cc2ccccc2)OC(=O)[C@H](C(C)C)OC(=O)[C@@H](NC(=O)c2cccc(NC=O)c2O)[C@@H](C)OC1=O` [Compound 3, Neoantimycin H]: the IC50 in data set [7] (NCM460, 72 h) is 115 ± 18.7 nM; in [2] (Homo sapiens, SGC-7901, 72 h), 12.2 ± 4.6 nM; in [4] (Homo sapiens, HCT-8, 72 h), 523 ± 104 nM; in data set [8] it was 1.5 to 523 nM; in [5] (Homo sapiens, SGC-7901, 72 h), 104 ± 22.7 nM; in data set [6] (Homo sapiens, HCT-8, 72 h), 26.6 ± 1.5 nM. Also, the “fold better anti-proliferative activity” value in [8] was 5.2~33.5 fold.
Turning to `CC[C@H](C)[C@@H]1OC(=O)C(C)(C)C(=O)[C@@H](Cc2ccccc2)OC(=O)[C@H](C(C)C)OC(=O)[C@@H](NC(=O)c2cccc(N)c2O)[C@@H](C)OC1=O` [Compound 1, Neoantimycin J], the IC50 was above 20000 nM in data set [2] (Homo sapiens, SGC-7901, 72 h); above 20000 nM in [4] (Homo sapiens, HCT-8, 72 h); above 20000 nM in [5] (Homo sapiens, SGC-7901, 72 h); above 20000 nM in data set [6] (Homo sapiens, HCT-8, 72 h).
Take `N.N.[Cl][Pt][Cl]` [cisplatin, reference compound]: the IC50 in data set [2] (cisplatin-resistant, 72 h exposure, CCK-8, mean ± SD, n = 3) was 5670 nM; in [4] (setting [13]), 9490 nM; in [5] (setting [13]) it was 2560 nM; in data set [6] (taxol-resistant, 72 h exposure, CCK-8, mean ± SD, n = 3), above 20000 nM.
With `CCC(C)C1OC(=O)C(C)(C)C(O)C(Cc2ccccc2)OC(=O)C(C)OC(=O)C(NC(=O)c2cccc(NC=O)c2O)C(C)OC1=O` (stereo not shown) [SW-163 A], the “cytotoxicity against KB cells” value in data set [9] is “no cytotoxicity”. The “cytotoxicity against K562 cells” value in data set [10] is “no cytotoxicity”.
As to `CC(=O)O[C@H]1C(=O)[C@@]2(C)[C@H]([C@H](OC(=O)c3ccccc3)[C@]3(O)C[C@H](OC(=O)[C@H](O)[C@@H](NC(=O)c4ccccc4)c4ccccc4)C(C)=C1C3(C)C)[C@]1(OC(C)=O)CO[C@@H]1C[C@@H]2O` [taxol, reference compound], the IC50 in [4] (setting [14]) was 2520 nM; in data set [6] (setting [15]), above 20000 nM.
As for `CC(C)[C@@H]1OC(=O)[C@@H](NC(=O)c2cccc(NC=O)c2O)[C@@H](C)OC(=O)[C@H](C(C)C)OC(=O)C(C)(C)[C@@H](O)[C@@H](Cc2ccccc2)OC1=O` [Compound 8, Neoantimycin F], the IC50 in [7] (NCM460, 72 h) is above 50000 nM; in data set [2] (Homo sapiens, SGC-7901, 72 h), 6.4 ± 0.5 nM; in data set [4] (Homo sapiens, HCT-8, 72 h), 136 ± 18.2 nM; in [8], 1.5 to 523 nM; in data set [5] (Homo sapiens, SGC-7901, 72 h), 98.5 ± 32.6 nM; in [6] (Homo sapiens, HCT-8, 72 h), 26.1 ± 0.1 nM. Besides, the “antiproliferative activity” value in data set [3] is reported as “hardly had any significant antiproliferative activity”. The “fold higher activity than corresponding oxidized forms (3 and 4)” value in data set [8] is given as 1.2~13 fold. Besides, the “fold better anti-proliferative activity” value in data set [8] is listed as 5.2~33.5 fold.
As for `CC[C@H](C)[C@@H]1OC(=O)C(C)(C)[C@@H](O)[C@@H](Cc2ccccc2)OC(=O)[C@H](C(C)C)OC(=O)[C@@H](NC(=O)c2cccc(NC=O)c2O)[C@@H](C)OC1=O` [Compound 7, Neoantimycin A], the IC50 in data set [7] (NCM460, noncancerous colon cell, 72 h exposure, CCK-8, mean ± SD, n = 3) was above 50000 nM; in data set [2] (Homo sapiens, SGC-7901, cisplatin-resistant, 72 h exposure, CCK-8, mean ± SD, n = 3) it was 1.5 ± 0.1 nM; in [4] (setting [14]), 66.9 ± 5.7 nM; in [8] (span over compounds 3, 4, 7, 8 and four cell lines), 1.5 to 523 nM; in [5] (Homo sapiens, SGC-7901, 72 h exposure, CCK-8, mean ± SD, n = 3), 24.5 ± 3.3 nM; in [6] (setting [15]), 2 ± 0.1 nM. In addition, the “percentage of apoptotic cells (Annexin V/PI)” value in [11] stood at 25.9 ± 0.7%. Besides, in data set [8], the “fold higher activity than corresponding oxidized forms (3 and 4)” value was 1.2~13 fold. Also, the “fold better anti-proliferative activity” value in data set [8] was 5.2~33.5 fold. For the same molecule, the “nuclear morphology after DAPI staining” value in [12] is on record as “nuclear shrinkage, DNA fragments as well as chromatin condensation”.
